What was measured:
[1] = intramolecular disulfide formation by ambient air oxidation of bis-Cys peptides on SiO2 array surface after side-chain deprotection (TFA/TMS-OTf) and NH3-gas DKP detachment; fraction oxidized from MALDI relative peak intensities; details: the molecule shown is the open-chain precursor, none (dry film on SiO2, ambient air), other, 18.0 h, scale: fraction oxidized
Rituximab [2] = experiment: Rituximab binding to constrained peptide arrays
Procedure: Cyclized and linear microarrays from Click and lactam wafers were probed using a seven point dilution series of Rituximab (Creative Diagnostics, TAB-016) ranging from 24.0 nM to 0.032 nM with threefold steps. Bound Rituximab was detected using an anti-human IgG-Alexa Fluor™ 555 (Thermo-Fisher) at 4.0 nM. All incubation times were for 1 hr and washes between incubation steps were conducted using Phosphate Buffered Saline with 0.05% Tween 20 (PBST). After the secondary detection step, slides were sequentially washed using PBST, distilled water and a 90% isopropanol rinse. Slides were immediately dried by centrifugation following the isopropanol rinse. Imaged arrays were gridded using commercial software to extract intensities from individual features. Data was analyzed using a custom R script. For both chemistries tested, 24.0 nM Rituximab gave the greatest differential between linear and cyclic copies of the same peptide (present on the same array) and was used for example boxplots. […] In the peptide sequence, B and X represent lactam cyclization residues Lys and Glu respectively. Individual feature replicates for BAEANPSX (cyclic) and BAEANPS (linear) from replicate arrays assayed on two separate slides were used to prepare the boxplot. A p-value comparing the replicate feature intensities was calculated using the anova function in R.

Rituximab [3] = experiment: Rituximab binding to biotinyl peptides captured on streptavidin ELISA plates; details: streptavidin ELISA plate; Rituximab 66.0 to 0.03 nM; absorbance at 450 nm
Procedure: To confirm Rituximab binding to the sequences identified in Example 22, the peptides in Table 1 were prepared by Fmoc-based solid phase synthesis. Peptides were biotinylated at either the N-terminal or through the […] side chain with a long chain biotin (LCBiot). Biotinylated peptides were bound to streptavidin ELISA plates. Rituximab in PBST was applied to the array in a dilution series ranging from 66.0 to 0.03 nM using three-fold dilution steps. Plates were incubated for 1 hr at 37° C. and washed 3× with PBST. An anti-human IgG-HRP conjugate was applied to the array at 1.0 μg/mL for 1 hr at 37° C. Plates were washed 3× with PBST and TMB substrate applied for 15 min at 37° C. followed by 2N HCl to stop the reaction. Absorbance was read at 450 nm and the median of triplicate wells plotted against mAb concentration in FIG. 19. Rituximab bound constrained peptide HTP115 but not linear version HTP113 or a constrained sequence with LCBiot at the N-terminal (HTP114). Rituximab also binds to HTP116, a biotinylated version of a cyclic disulfide sequence previously reported to bind to Rituximab (Perosa et al. Blood, 2006, 107 (3), 1070-1077).

Row | Rituximab binding to biotinyl peptide (Rituximab [3]) | Molecule | ring closure, fraction oxidized by MALDI ([1]; 20-membered ring) | further results
1 | binds | LCBiot-ACPYANPSLC amide (cyclic disulfide) [HTP116, reference compound] |  | 
2 | not | LCBiot-K(Ac)AEANPSQ amide [HTP113] |  | 
3 | not | LCBiot-cyclo[KeAEANPSQ] [HTP114] |  | 
4 | bound | cyclo[KεAEANPSQ(LCBiot)] amide [HTP115] |  | 

The remaining lines, values behind:

Row | Molecule | Rituximab binding to biotinyl peptide (Rituximab [3]) | ring closure, fraction oxidized by MALDI ([1]; 20-membered ring) | further results
5 | COc1cc(OC)c([P+](CC(=O)N[C@@H](CCCCN)C(=O)N[C@@H](CS)C(=O)N[C@H](C(=O)N2CCC[C@H]2C(=O)NCC(=O)N[C@@H](Cc2c[nH]cn2)C(=O)N[C@@H](CS)C(=O)N[C@@H](CC(C)C)C(=O)NCCCC[C@@H]2NC(=O)[C@@H]3CCCN3C2=O)[C@@H](C)O)(c2c(OC)cc(OC)cc2OC)c2c(OC)cc(OC)cc2OC)c(OC)c1 |  | 0.63 | 
6 | COc1cc(OC)c([P+](CC(=O)N[C@@H](CS)C(=O)N[C@H](C(=O)N2CCC[C@H]2C(=O)NCC(=O)N[C@@H](Cc2c[nH]cn2)C(=O)N[C@@H](CS)C(=O)NCCCC[C@@H]2NC(=O)[C@@H]3CCCN3C2=O)[C@@H](C)O)(c2c(OC)cc(OC)cc2OC)c2c(OC)cc(OC)cc2OC)c(OC)c1 |  | 0.79 | 
7 | COc1cc(OC)c([P+](CC(=O)N[C@@H](CS)C(=O)N[C@H](C(=O)N[C@@H](CCC(N)=O)C(=O)N[C@@H](Cc2c[nH]cn2)C(=O)N[C@@H](Cc2ccc(O)cc2)C(=O)N[C@@H](CS)C(=O)NCCCC[C@@H]2NC(=O)[C@@H]3CCCN3C2=O)[C@@H](C)O)(c2c(OC)cc(OC)cc2OC)c2c(OC)cc(OC)cc2OC)c(OC)c1 |  | 0.75 | 
8 | COc1cc(OC)c([P+](CC(=O)N[C@@H](CS)C(=O)N[C@@H](CS)C(=O)NCCCC[C@@H]2NC(=O)[C@@H]3CCCN3C2=O)(c2c(OC)cc(OC)cc2OC)c2c(OC)cc(OC)cc2OC)c(OC)c1 [TMPP-Ac-Cys-Cys-DKP [DKP = N-epsilon of cyclo(Lys-Pro)]] |  |  | ring closure, fraction oxidized by MALDI ([1]; 8-membered ring): 0.8
9 | BAEANPSX |  |  | change of Rituximab binding upon Click cyclization (Rituximab [2]; cyclic versus linear feature, Click array): not; change of Rituximab binding upon lactam based cyclization (Rituximab [2]; cyclic versus linear feature, lactam array): increases; Rituximab binding on lactam array (rank among binders) (Rituximab [2]; lactam array, 24.0 nM Rituximab): amongst the top Rituximab binders

— US20200407712A1, “ARRAY-BASED CYCLIC PEPTIDE LIBRARIES” (HealthTell Inc., priority 2018, published 2020)
